Experimental data taken from ChEMBL document CHEMBL1155363, “4,4-Disubstituted cyclohexylamine based CCR5 chemokine receptor antagonists as anti-HIV-1 agents” (Bioorg Med Chem Lett, 2009).

System: Human immunodeficiency virus 1
Assay: Antiviral activity against HIV1 Ba-L infected in HOS cells assessed as inhibition of viral infection
Format: functional, organism-based
Conditions: Human immunodeficiency virus 1, Ba-L

Compound | IC50
Cc1ccc(S(N)(=O)=O)c(C)c1C(=O)N[C@H]1CC[C@@](CCN2[C@@H]3CC[C@H]2C[C@@H](n2c(C)nc4ccccc42)C3)(c2ccccc2)CC1 | 2.55 µM
Cc1nc2ccccc2n1[C@H]1C[C@H]2CC[C@@H](C1)N2CC[C@]1(c2ccccc2)CC[C@@H](NC(=O)c2ccc(Cl)c(S(N)(=O)=O)c2)CC1 | 1.63 µM
Cc1ccc(S(N)(=O)=O)c(C)c1C(=O)N[C@H]1CC[C@](CCN2[C@@H]3CC[C@H]2C[C@@H](n2c(C)nc4ccccc42)C3)(c2ccccc2)CC1 | 1.07 µM
Cc1nc2ccccc2n1[C@H]1C[C@H]2CC[C@@H](C1)N2CC[C@]1(c2ccccc2)CC[C@H](NC(=O)c2ccc(F)c(S(N)(=O)=O)c2)CC1 | 0.48 µM
CNS(=O)(=O)c1cc(Cl)c(C(=O)N[C@H]2CC[C@](CCN3[C@@H]4CC[C@H]3C[C@@H](n3c(C)nc5ccccc53)C4)(c3ccccc3)CC2)cc1F | 0.51 µM
Cc1nc2ccccc2n1[C@H]1C[C@H]2CC[C@@H](C1)N2CC[C@]1(c2ccccc2)CC[C@H](NC(=O)c2cc(S(=O)(=O)NC(C)C)c(Cl)cc2F)CC1 | 0.59 µM
CNS(=O)(=O)c1cc(C(=O)N[C@H]2CC[C@@H](CN3[C@@H]4CC[C@H]3C[C@@H](n3c(C)nc5ccccc53)C4)CC2)c(Cl)cc1F | > 20 µM
Cc1nc2ccccc2n1[C@H]1C[C@H]2CC[C@@H](C1)N2CC[C@]1(c2ccccc2)CC[C@H](NC(=O)c2cc(NS(C)(=O)=O)c(Cl)cc2F)CC1 | 1.48 µM
Cc1nc2ccccc2n1[C@H]1C[C@H]2CC[C@@H](C1)N2CCC[C@]1(c2ccccc2)CC[C@H](NC(=O)c2ccc(Cl)c(S(N)(=O)=O)c2)CC1 | 0.38 µM
Cc1ccnc(C)c1C(=O)N[C@H]1CC[C@](CCCN2[C@@H]3CC[C@H]2C[C@@H](n2c(C)nc4ccccc42)C3)(c2ccccc2)CC1 | 2.19 µM
Cc1nc2ccccc2n1[C@H]1C[C@H]2CC[C@@H](C1)N2C[C@H]1CC[C@@H](NC(=O)c2ccc(Cl)c(S(N)(=O)=O)c2)CC1 | > 20 µM
Cc1nc2ccccc2n1[C@H]1C[C@H]2CC[C@@H](C1)N2[C@]1(C)CC[C@H](NC(=O)c2ccc(Cl)c(S(N)(=O)=O)c2)CC1 | 0.87 µM
Cc1nc2ccccc2n1[C@H]1C[C@H]2CC[C@@H](C1)N2[C@]1(C)CC[C@H](NC(=O)c2c(Cl)ccc(S(N)(=O)=O)c2Cl)CC1 | 20 µM
Cc1nc2ccccc2n1[C@H]1C[C@H]2CC[C@@H](C1)N2CC[C@]1(c2ccccc2)CC[C@H](NC(=O)c2ccc(Cl)c(S(N)(=O)=O)c2)CC1 | 0.058 µM
Cc1nc2ccccc2n1[C@H]1C[C@H]2CC[C@@H](C1)N2CC[C@]1(c2ccccc2)CC[C@H](NC(=O)c2ccc(S(N)(=O)=O)cc2Cl)CC1 | 0.23 µM
Cc1nc2ccccc2n1[C@H]1C[C@H]2CC[C@@H](C1)N2CC[C@]1(c2ccccc2)CC[C@H](NC(=O)c2ccc(S(N)(=O)=O)cc2F)CC1 | 1.8 µM
